Laboratory results reported in patent US9491960B2, “Sweetener” (Tate & Lyle Ingredients Americas LLC, priority 2013, dated 2016).
Read-outs that look alike come from different tables or passages of the source. Marks after values point to notes of the source that are not given here.

Assays:
[1] = cited from earlier work
[2] = Round table sensory evaluation by test panelists: sucrose equivalent value (SEV) against sucrose reference samples; assay type: in vivo; details: for Sweetness (mean SEV, Duncan grouping) / Sweetness (mean SEV, two-way ANOVA, level of significance Duncan): 10 SEV solutions in neutral pH water; for Sweetness (mean SEV, Duncan grouping): level of significance for the grouping (Duncan): 5%; for Sweetness (mean SEV, two-way ANOVA, level of significance Duncan): superscripts = Duncan level of significance; for Mean 1 (mean sucrose equivalent value, SEV) / Median 1 (median sucrose equivalent value, SEV): equal sweet 10 SEV concentrations in neutral pH water, references 4%-14% sucrose, room temperature
Method: Round table evaluations were performed with test panelists. Equal sweet 10 SEV concentrations in neutral pH water were made for allulose, fructose and sucralose, as well as a composition comprising allulose, fructose and sucralose. The components of the test compositions are described in the below tables. The mixed compositions were calculated using the Beidler mixture equation for the sweeteners. The Beidler mixture equation for sweeteners is as follows: […]
The concentration of each component in the mixture in ppm is divided by SEV (c/R) and is plotted against concentration, c. The slope of the linear regression is the maximum SEV (Rmax). The y-intercept of the linear regression multiplied by Rmax is the half-maximal sweetness concentration, 1/K. Rmax and 1/K are the two parameters used in the Beidler equation.
The equal-molar mixture was tested against reference samples for the panelists to determine SEV values. […] The test samples were served in 2 ounce (approximately 60 ml) soufflé cups coded with 3-digit codes at room temperature. A two minute wait period between samples was enforced. Water and unsalted crackers was available for the panelists to clear their palates before and during testing. EyeQuestion, software distributed by Logic8 BV of Elst, The Netherlands, was used for ballot development and recording of results. Results were collected in EyeQuestion for calculating approximate SEV level of each test sample. The test products analyzed in this experiment are described below in Table 1.

Row | Compound | Sweetness relative to sucrose ([1]; % of the sweetness of sucrose) | Sweetness (mean SEV, Duncan grouping) [2] | Sweetness (mean SEV, two-way ANOVA, level of significance Duncan) [2] | Mean 1 (mean sucrose equivalent value, SEV) [2] | Median 1 (median sucrose equivalent value, SEV) [2] | Sweetness relative to sucrose ([1]; times as sweet as sucrose)
1 | O=C(CO)C(O)C(O)C(O)CO (centres unmarked) [Allulose, allulose] | around 70% | 10.14^b-c | 10.14 | 10.14 | 10 | 
2 | O=C(CO)[C@@H](O)[C@H](O)[C@H](O)CO [Fructose, fructose] |  | 10.14^b-c | 10.14 | 10.14 | 10 | 
3 | sucralose |  | 9.29^c | 9.29 | 9.286 | 10 | approximately 600 times
